How the values were obtained:
laccase = details: optimal conditions (15°C, pH 3.5), but b56 states 28°C and 10 to 40 mmol/L substrate; sodium acetate buffer
[1] = test system: T1, MIP (manganese-independent peroxidase); experiment: initial rates, oxidation of DMP at […] nm; type: biochemical, Cladosporium cladosporioides; details: without H2O2 and Mn2+; optimal conditions (20°C, pH 2.5), but b56 states 28°C and 10 to 40 mmol/L substrate; malonate buffer; compound identity doubtful: DMP is spelt out as dimethyl phthalate
T1 construct: native enzyme purified from culture supernatant (ammonium sulfate, DEAE-Sephadex A 50, CM-Sephadex C 50, Sephadex G-75); about 47 kDa by SDS-PAGE

Km (laccase)	Compound	Km [1]
2.8 µM	CCn1c(=NN=c2sc3cc(S(=O)(=O)O)ccc3n2CC)sc2cc(S(=O)(=O)O)ccc21 [ABTS]	–
–	COc1cccc(OC)c1O [DMP]	6.9 µM

Reference: paper PMC4172917, “Synergy of crude enzyme cocktail from cold-adapted Cladosporium cladosporioides Ch2-2 with commercial xylanase achieving high sugars yield at low cost” (Biotechnology for Biofuels, 2014)
